# Results reported in US12221494B2, “Short synthetic peptides and their uses for treating retinal degenerative diseases and/or tissue injuries” (MacKay Memorial Hospital, priority 2019, dated 2025).
# Square brackets hold non-standard residues; d marks the D form. Ends that are not written are not given here.
# Tested on: ARPE-19 cells
# Assay: 4-HNE induced apoptosis of ARPE-19 cells (TUNEL staining)
# Assay type: cell-based, human
# Details: 20 μM peptide pretreatment, 25 μM 4-HNE 24 h
# Experimental: FIG. 6. The protective effect of the 6-mer dS on ARPE-19 cells against 4-HNE induced apoptosis. Cells were deprived of serum for 24 h and then pretreated with 20 μM 6-mer dS or solvent prior to exposed with 25 μM 4-HNE for additional 24 h. Apoptosis was determined by TUNEL staining (green dots) and counter-stained with Hoechst 33258 (blue dots). (A) Representative graphs from three independent experiments are shown. (B) The percentage of cell death was quantified by dividing the number of TUNEL-positive cells to a population of 2000 counted cells per condition. TUNEL, terminal deoxynucleotidyl transferase-mediated dUTP nick end-labeling. ^aP<0.00003 versus solvent-treated cells. ^bP<0.0006 versus solvent/4-HNE-treated cells.
# Reference is made to FIG. 6, which depicts the protective effect of 6-mer dS or 6-mer dE on 4-hydroxy-2-nonenal (4-HNE) induced apoptosis of ARPE-19 cells. 4-hydroxy-2-nonenal (4-HNE) is a product of lipid oxidation, and is also considered as one of the most formidable reactive aldehydes capable of forming adduct with various cellular targets, particularly proteins involve in redox signaling.
substance,measurement,value
"NH2-Ser-Leu-Gly-Ala-Glu-Gln-COOH ([dS]LGAEQ; not fully specified (N-terminus, C-terminus); printed as NH2-Ser-Leu-Gly-Ala-Glu-Gln-COOH) [Peptide 6-mer]","4-HNE induced apoptosis (TUNEL), in words",6-mer dS being more effective than the 6-mer
